Counter-ions that a name gives are not always drawn.
Key:
[1] = test system: human Alzheimer's disease; settings: in combination with use of lecithin; Summers, N. Engl. J. Med. 315, 1241 (1986); cited from earlier work
[2] = test system: Na^+ dependent high-affinity choline uptake (HACU) of AF64A-treated rat hippocampus; assay: Na+ dependent high-affinity choline uptake (HACU) in crude synaptosomal fraction of AF64A-treated rat hippocampus; format: biochemical; settings: for Improved ratio (% based on Control): HACU, AF64A-treated rat hippocampus synaptosomal fraction, [3H]choline 1 μM, 37° C.
Description: Effects on Na^+ dependent high-affinity choline uptake (HACU) of AF64A-treated rat hippocampus
According to the method of Fischer et al. [J. Pharm. Exper. Ther., Vol. 222, p. 140 (1982)], AF64A was prepared from AF64. AF64A (1.5 nmole/1.5 μl/side) was injected into rat's both ventricles. After one week, subjecting decapitation, only hippocampus was taken out. It was homogenized with 0.32M of sucrose, centrifuged for 10 minutes at 1000 g, and the supernatant was further centrifuged for 20 minutes at 20,000 g to give crude synaptosomal fraction. The crude synaptosomal fraction and medicament were subjected to incubation at 37° C. for 30 minutes, and after addition of [^3 H]choline (1 μM), they were further subjected to incubation at 37° C. for 10 minutes.
As a control, the crude synaptosomal fraction was subjected to incubation at 37° C. for 30 minutes, and after addition of choline [^3 H]choline (1 μM), it was further subjected to incubation at 37° C. for 10 minutes to use. The reaction was stopped by subjecting filtration on Whatman GF/B filter. Radioactivity on the filter was measured by a liquid scintillation counter and it was made as the HACU amount. An amount of protein was determined according to the method of Bradford. [Analytical Biochemistry, Vol. 72, p. 248 (1976)].

[3] = Acute toxicity test, oral, mouse; settings: in vivo
Description: The compound of the present invention was orally administered to a mouse and acute toxicity value was measured.

SMILES | effectiveness in human Alzheimer's disease [1] | Improved ratio (% based on Control) ([2]; 10^-4 M) [%] | Improved ratio (% based on Control) ([2]; 10^-5 M) [%] | Improved ratio (% based on Control) ([2]; 10^-6 M) [%] | Improved ratio (% based on Control) ([2]; 10^-7 M) [%] | Improved ratio (% based on Control) ([2]; 10^-8 M) [%] | high affinity-choline uptake in hippocampus synaptosome of AF64A-injected rat (activation, in words) ([2]; AF64A injected in cerebral ventricles) | LD50 [3] [mg/kg]
Nc1c2c(nc3ccccc13)CCCC2 [9-Amino-1,2,3,4-tetrahydroacridine, reference compound] | effective to human Alzheimer's disease | -73 | -11 | 8 | 5 | 2 | could not be found out | 67
CCCC(=O)Nc1c2c(nc3ccccc13)CCCC2 [Example 1, N-(1,2,3,4-tetrahydroacridin-9-yl)butanamide] | – | 15 | 31 | 28 | 13 | 20 | – | 1000
CC(C)C(=O)Nc1c2c(nc3ccccc13)CCCC2 [Example 3] | – | 21 | 19 | 11 | 16 | 13 | – | –
CCCCC(=O)Nc1c2c(nc3ccccc13)CCCC2 [Example 4] | – | 5 | 29 | 3 | 5 | 4 | – | –
O=C(CN1CCCC1=O)Nc1c2c(nc3ccccc13)CCCC2 [Example 14, 2-(2-oxopyrrolidin-1-yl)-N-(1,2,3,4-tetrahydroacidin-9-yl)acetamide hydrochloride] | – | 21 | 17 | 16 | 19 | 12 | – | 2300
Cc1ccc2nc3c(c(NC(=O)CN4CCCC4=O)c2c1)CCCC3 [Example 15] | – | – | -2 | 28 | -5 | 3 | – | –
CN1CCc2nc3ccccc3c(NC(=O)CN3CCCC3=O)c2C1 [Example 20] | – | 28 | 9 | 23 | 21 | 10 | – | –
O=C(CN1CCCC1=O)Nc1c2c(nc3ccccc13)CCN(Cc1ccccc1)C2 [Example 21] | – | 18 | 32 | 19 | 11 | 10 | – | –
O=C(CN1CCCC1=O)Nc1c2c(nc3ccccc13)C1CCN2CC1 [Example 22] | – | 4 | 30 | 10 | 16 | 13 | – | –
O=C(CN1CCCC1=O)Nc1c2c(nc3sccc13)CCCC2 [Example 27] | – | 9 | 41 | 25 | 19 | 5 | – | –
O=C(CN1C(=O)CCC1=O)Nc1c2c(nc3ccccc13)CCCC2 [Example 35] | – | 26 | 27 | 15 | 26 | 2 | – | –
O=C1CN(CC(=O)Nc2c3c(nc4ccccc24)CCCC3)C(=O)CN1 [Example 37] | – | 39 | 34 | 27 | 9 | 14 | – | 2100
CNCC(=O)Nc1c2c(nc3ccccc13)CCCC2 [Example 39, 9-[(2-methylamino)acetyl-amino]-1,2,3,4-tetrahydroacridine] | – | -11 | 24 | 16 | 8 | 5 | – | –
CCOC(=O)CNCC(=O)Nc1c2c(nc3ccccc13)CCCC2 [Example 40] | – | 3 | 20 | 14 | 18 | 8 | – | –
O=C(Cn1ccnc1)Nc1c2c(nc3ccccc13)CCCC2 [Example 41] | – | 20 | 46 | 18 | 5 | 5 | – | –
CC(=O)N(C)CC(=O)Nc1c2c(nc3ccccc13)CCCC2 [Example 42] | – | 11 | 29 | 30 | 14 | 11 | – | –
NC(=O)NCC(=O)Nc1c2c(nc3ccccc13)CCCC2 [Example 46] | – | 27 | 13 | 28 | 11 | -8 | – | –
CNC(=O)N1CCc2nc3ccccc3c(NC(=O)CN3CCCC3=O)c2C1 [Example 50] | – | – | 27 | 35 | 20 | 4 | – | –
CCCC(=O)Nc1c2c(nc3ccccc13)CCC(O)C2 (stereo not drawn) [Example 53, N-(1,2,3,4-tetrahydroacridin-2-ol-9-yl)butanamide] | – | 14 | 15 | 23 | 18 | 14 | – | –
